Consider two molecules from patent publication US11911434B2, “Stable antibody-drug conjugate, preparation method therefor, and use thereof” (GENEQUANTUM HEALTHCARE (SUZHOU) CO., LTD., priority 2014, dated 2024).

One test relates to BT-474 cells. Description: Tumor cell proliferation, CellTiter Glo, BT-474. The test is classed as cell-based, human. The settings on record: BT-474, 48-96 h; read-out: Inhibition effects on tumor cell proliferation (IC50). How it is done:
(§1) 1) ErbB2/Her2 low expressing human breast cancer cells MCF-7, MDA-MB-468, ErbB2/Her2 high expressing human breast cancer cells BT-474, SK-BR-3, HCC1954, human ovarian cancer cells SK-OV-3, human gastric cancer cell NCI-N87 was seeded into a 96-well plate at 100 μl/well (containing 1000 to 10000 cells), and incubated in a cell culture incubator overnight (37° C., 5% CO2, 95% air, 100% humidity).
(§2) 3) The cell plate was removed from the incubator, equilibrated for about 30 minutes to room temperature. Each well was added 100 μl CellTiter Glo reagent, shocked in an oscillator for 2 min, then left stand for 10 min at room temperature in dark, the relative light units (RLU) is measured with a BioTech Gen5 microplate reader.

Another test deals with HCC-1954 cells. Description: Tumor cell proliferation, CellTiter Glo, HCC1954. The test is classed as cell-based, human. The settings on record: HCC-1954, 48-96 h; read-out: Inhibition effects on tumor cell proliferation (IC50). How it is done:
as §1, §2
A general note: ATP-based viability assays read luminescence as a measure of living cells.

The subject of test [1] is cells with low ErbB2/Her2 expression (MCF-7, MDA-MB-468). The test can be described thus: Tumor cell proliferation, cells with low ErbB2/Her2 expression. The test is classed as cell-based, human. The settings on record: 0.005-30 nM. As to the method:
as §1, §2

Test [2] has as its system cells with high ErbB2/Her2 expression (BT-474, SK-BR-3, HCC1954, SK-OV-3, NCI-N87). The test can be described thus: Tumor cell proliferation, cells with high ErbB2/Her2 expression. The settings on record: 0.005-30 nM. The test is classed as cell-based, human. How it is done: as §1, §2
The next test deals with NCI-N87 cells. Description: Tumor cell proliferation, CellTiter Glo, NCI-N87. The settings on record: NCI-N87, 48-96 h; read-out: Inhibition effects on tumor cell proliferation (IC50). The test is classed as cell-based, human. How it is done:
as §1, §2

The subject of the next test is MCF-7 cells. Description: Tumor cell proliferation, CellTiter Glo, MCF-7. The test is classed as cell-based, human. The settings on record: MCF-7, 48-96 h; read-out: Inhibition effects on tumor cell proliferation (IC50). How it is done:
as §1, §2

The subject of the next test is SK-OV-3 cells. The test can be described thus: Tumor cell proliferation, CellTiter Glo, SK-OV-3. The test is classed as cell-based, human. The settings on record: SK-OV-3, 48-96 h; read-out: Inhibition effects on tumor cell proliferation (IC50). As to the method: as §1, §2
A further test concerns MDA-MB-468 cells. Description: Tumor cell proliferation, CellTiter Glo, MDA-MB-468. The test is classed as cell-based, human. The settings on record: MDA-MB-468, 48-96 h; read-out: Inhibition effects on tumor cell proliferation (IC50). How it is done:
as §1, §2

The next test deals with SK-BR-3 cells. Description: Tumor cell proliferation, CellTiter Glo, SK-BR-3. The test is classed as cell-based, human. The settings on record: SK-BR-3, 48-96 h; read-out: Inhibition effects on tumor cell proliferation (IC50). How it is done: as §1, §2
In a further test the test system is HCC1954 xenograft. Description: HCC1954 xenograft in nude mice. The settings on record: 5 mg/kg. The test is classed as in vivo, BALB/c nude mouse. As to the method: The in vivo anti-tumor effect of the candidate ADC was determined using xenograft model of nude mice after administration of the candidate ADC.
1) HCC1954 breast cancer cells in the logarithmic growth phase were collected and adjusted with matrigel buffer (PBS: BD Matrigel=1:1) to a cell density of 2.5×10^7/ml. 0.2 ml of this prepared HCC1954 cell suspension was injected subcutaneously to the right scapula of each BALB/c nude mouse (6 to 8 week-old, SPF grade, female).
2) 7 days after cell inoculation, the diameter of the tumor was measured by caliper and the tumor volume was calculated according to the Formula: V=0.5a×b^2 (a is the longest diameter of the tumor, b is the shortest diameter of the tumor). […] Administration was via the tail vein injection, and the control group received an equal volume of the vehicle. […] The tumor volumes at each time point were calculated and compared between groups. At the same time, the T-C or T/C value was used as the index to evaluate the anti-tumor activity of each drug. T-C value is calculated as the follows: T is the average time (Days) when the average tumor volume of each treatment group reaches a preset size (500 mm^3), C is the average time (Day) when the average tumor volume of the controlled group reaches the preset size (500 mm^3). While T/C (percentage) is the index for tumor inhibition effect, T is the average tumor volume of all the drug treatment groups at a fixed time point, and C is the average tumor volume of the control group at the fixed time point.

In the case of `COc1cc2cc(c1Cl)N(C)C(=O)C[C@H](OC(=O)[C@H](C)N(C)C(=O)CCS)[C@]1(C)O[C@H]1[C@H](C)[C@@H]1C[C@@](O)(NC(=O)O1)[C@H](OC)/C=C/C=C(\C)C2` [DM1], the IC50 in the test on BT-474 cells worked out at 16.3 nM; in the test with HCC-1954 cells, 2.9 nM; in the test on NCI-N87 cells, 7.18 nM; in the test with MCF-7 cells, 5.71 nM; with SK-OV-3 cells, 1.59 nM; with MDA-MB-468 cells, 4.22 nM. In the test on SK-BR-3 cells, the IC50 stood at 1.92 nM. Besides, the “inhibition effect on proliferation (in words)” value in test [1] and in [2] was “significant inhibition effect” in each case.

Broadly, the T/C is the ratio of treated to control. On to ado-trastuzumab emtansine [Kadcyla], for which the “inhibition on ErbB2/Her2 positive breast cancer (in words)” value with HCC1954 xenograft is “significant inhibition”. Besides, the “tumor volumes compared with control group” value in the test on HCC1954 xenograft (10 days after administration) is listed as “significantly smaller than control group”. The “Tumor Size at day 31 (Mean ± SEM)” value in the test with HCC1954 xenograft (single tail vein injection, n=10) worked out at 29 ± 4 mm^3. In addition, the tumor regrowth result in the test with HCC1954 xenograft (until 38 days after the administration) is “No sign of tumor regrowth”. The “T-C at 500 mm^3” value in the test with HCC1954 xenograft (time to reach 500 mm^3, treated minus control) is given as greater than 17 days. Besides, in the test with HCC1954 xenograft (treated / control average tumor volume), the T/C is reported as 1.3%. Moreover, the IC50 in the test on BT-474 cells stood at 0.144 nM; with HCC-1954 cells it was 0.049 nM; with NCI-N87 cells it was 0.031 nM; in the test with SK-OV-3 cells, 0.049 nM; in the test with SK-BR-3 cells, 0.03 nM. In test [1], the “inhibition effect on proliferation (in words)” value is reported as “only inhibits the proliferation of cells with low ErbB2/Her2 expression at high concentrations”.
